Tests used:
Assay in all cases: relative viability (nuclei count vs DMSO), 5 days (fraction); higher = more cells survive
[1] = system: 201T
Summary of the method: (§1)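 Nuclei were stained with Hoechst during a one-step fixation (final 0.05% Triton X-100, 1% formaldehyde, 1 ug/ml Hoechst) carried out 5 days after dosing, then counted on 4× images. The cells, lung cancer lines in 1536-well plates, had been dosed by pin tool the day after seeding with one drug alone or a fixed anchor-drug dose plus five library-drug doses (not always all listed) in √10 steps. Relative viability is the nuclei count in treated wells divided by that in vehicle wells, and each value is the median of duplicate plates.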

[2] = system: CAL-12T
Summary of the method: as §1

[3] = system: COR-L 105
Summary of the method: as §1

[4] = system: H3255
Summary of the method: as §1

[5] = system: HARA
Summary of the method: as §1

[6] = system: HCC-15
Summary of the method: as §1

[7] = system: HCC-827
Summary of the method: as §1

[8] = system: LCLC-97TM1
Summary of the method: as §1

[9] = system: LU99A
Summary of the method: as §1

[10] = system: NCI-H1395
Summary of the method: as §1

[11] = system: NCI-H1651
Summary of the method: as §1

[12] = system: NCI-H1792
Summary of the method: as §1

[13] = system: NCI-H2009
Summary of the method: as §1

[14] = system: NCI-H2087
Summary of the method: as §1

[15] = system: NCI-H2170
Summary of the method: as §1

[16] = system: NCI-H2228
Summary of the method: as §1

[17] = system: NCI-H23
Summary of the method: as §1

[18] = system: NCI-H2405
Summary of the method: as §1

[19] = system: NCI-H650
Summary of the method: as §1

[20] = system: NCI-H661
Summary of the method: as §1

[21] = system: PC-3 [JPC-3]
Summary of the method: as §1

[22] = system: SK-MES-1
Summary of the method: as §1

[23] = system: UMC-11
Summary of the method: as §1

Oc1nc(-c2ccc(C(F)(F)F)cc2)nc2c1CSCC2 [XAV939] + CC(=O)c1c(C)c2cnc(Nc3ccc(N4CCNCC4)cn3)nc2n(C2CCCC2)c1=O [Palbociclib] (partner 0.5 µM)
relative viability ([1]; first compound 0.08 µM): 0.362 | relative viability ([1]; first compound 0.253 µM): 0.315 | relative viability ([1]; first compound 0.8 µM): 0.338 | relative viability ([1]; first compound 2.53 µM): 0.3 | relative viability ([2]; first compound 0.08 µM): 0.465 | relative viability ([2]; first compound 0.253 µM): 0.342 | relative viability ([2]; first compound 0.8 µM): 0.263 | relative viability ([2]; first compound 2.53 µM): 0.209 | relative viability ([3]; first compound 0.08 µM): 0.403 | relative viability ([3]; first compound 0.253 µM): 0.399 | relative viability ([3]; first compound 0.8 µM): 0.43 | relative viability ([3]; first compound 2.53 µM): 0.397 | relative viability ([4]; first compound 0.08 µM): 0.311 | relative viability ([4]; first compound 0.253 µM): 0.317 | relative viability ([4]; first compound 0.8 µM): 0.314 | relative viability ([4]; first compound 2.53 µM): 0.291 | relative viability ([5]; first compound 0.08 µM): 0.334 | relative viability ([5]; first compound 0.253 µM): 0.22 | relative viability ([5]; first compound 0.8 µM): 0.234 | relative viability ([5]; first compound 2.53 µM): 0.242 | relative viability ([6]; first compound 0.08 µM): 0.709 | relative viability ([6]; first compound 0.253 µM): 0.68 | relative viability ([6]; first compound 0.8 µM): 0.721 | relative viability ([6]; first compound 2.53 µM): 0.705 | relative viability ([7]; first compound 0.08 µM): 0.571 | relative viability ([7]; first compound 0.253 µM): 0.459 | relative viability ([7]; first compound 0.8 µM): 0.584 | relative viability ([7]; first compound 2.53 µM): 0.517 | relative viability ([8]; first compound 0.08 µM): 0.237 | relative viability ([8]; first compound 0.253 µM): 0.204 | relative viability ([8]; first compound 2.53 µM): 0.232 | relative viability ([9]; first compound 0.08 µM): 0.477 | relative viability ([9]; first compound 0.253 µM): 0.406 | relative viability ([9]; first compound 0.8 µM): 0.433 | relative viability ([9]; first compound 2.53 µM): 0.424 | relative viability ([10]; first compound 0.08 µM): 0.644 | relative viability ([10]; first compound 0.253 µM): 0.575 | relative viability ([10]; first compound 0.8 µM): 0.569 | relative viability ([10]; first compound 2.53 µM): 0.568 | relative viability ([11]; first compound 0.08 µM): 0.566 | relative viability ([11]; first compound 0.253 µM): 0.521 | relative viability ([11]; first compound 0.8 µM): 0.529 | relative viability ([11]; first compound 2.53 µM): 0.462 | relative viability ([12]; first compound 0.08 µM): 0.777 | relative viability ([12]; first compound 0.253 µM): 0.425 | relative viability ([12]; first compound 0.8 µM): 0.675 | relative viability ([12]; first compound 2.53 µM): 0.558 | relative viability ([13]; first compound 0.08 µM): 0.275 | relative viability ([13]; first compound 0.253 µM): 0.239 | relative viability ([13]; first compound 0.8 µM): 0.188 | relative viability ([13]; first compound 2.53 µM): 0.317 | relative viability ([14]; first compound 0.08 µM): 0.325 | relative viability ([14]; first compound 0.253 µM): 0.182 | relative viability ([14]; first compound 0.8 µM): 0.224 | relative viability ([14]; first compound 2.53 µM): 0.164 | relative viability ([15]; first compound 0.08 µM): 0.41 | relative viability ([15]; first compound 0.253 µM): 0.263 | relative viability ([15]; first compound 0.8 µM): 0.436 | relative viability ([15]; first compound 2.53 µM): 0.322 | relative viability ([16]; first compound 0.08 µM): 0.971 | relative viability ([16]; first compound 0.253 µM): 0.613 | relative viability ([16]; first compound 0.8 µM): 0.664 | relative viability ([16]; first compound 2.53 µM): 0.657 | relative viability ([17]; first compound 0.08 µM): 0.529 | relative viability ([17]; first compound 0.8 µM): 0.465 | relative viability ([17]; first compound 2.53 µM): 0.386 | relative viability ([18]; first compound 0.08 µM): 0.554 | relative viability ([18]; first compound 0.253 µM): 0.513 | relative viability ([18]; first compound 0.8 µM): 0.492 | relative viability ([18]; first compound 2.53 µM): 0.386 | relative viability ([19]; first compound 0.08 µM): 0.376 | relative viability ([19]; first compound 0.253 µM): 0.35 | relative viability ([19]; first compound 0.8 µM): 0.333 | relative viability ([19]; first compound 2.53 µM): 0.303 | relative viability ([20]; first compound 0.08 µM): 0.407 | relative viability ([20]; first compound 0.253 µM): 0.394 | relative viability ([20]; first compound 0.8 µM): 0.409 | relative viability ([20]; first compound 2.53 µM): 0.388 | relative viability ([21]; first compound 0.253 µM): 0.5 | relative viability ([21]; first compound 0.8 µM): 0.523 | relative viability ([21]; first compound 2.53 µM): 0.485 | relative viability ([22]; first compound 0.08 µM): 0.288 | relative viability ([22]; first compound 0.253 µM): 0.299 | relative viability ([22]; first compound 0.8 µM): 0.338 | relative viability ([22]; first compound 2.53 µM): 0.297 | relative viability ([23]; first compound 0.08 µM): 0.326 | relative viability ([23]; first compound 0.253 µM): 0.287 | relative viability ([23]; first compound 0.8 µM): 0.355 | relative viability ([23]; first compound 2.53 µM): 0.232

Source: the supplement of paper PMC10307832
